Target: T1, Pol theta (1-899) (Homo sapiens, UniProt O75417)
T1 construct: Pol theta (1-899) (5 nM) in assay buffer
Experiment: Pol theta ATPase activity, NADH oxidation-coupled enzymatic assay (ATPase NADH coupling: Standard Screening: hPolQ)
Assay type: biochemical
Conditions: Pol theta (1-899) 5 nM, NADH oxidation-coupled ATPase assay; compounds of Table 3
Summary of the method: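 NADH-coupled ATPase readout: 5 nM Pol theta (1-899) preincubated 15 min with 10-point compound series in Tris pH 7.80, KCl, MgCl2, DTT, BSA, Tween, glycerol, then 100 μM ATP, 300 nM 50-mer poly-dT ssDNA, NADH, PEP, LDH and PK added (stock levels). A340 followed 60 min; slopes fit four-parameter for IC50.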

T1 sequence (O75417 1-899): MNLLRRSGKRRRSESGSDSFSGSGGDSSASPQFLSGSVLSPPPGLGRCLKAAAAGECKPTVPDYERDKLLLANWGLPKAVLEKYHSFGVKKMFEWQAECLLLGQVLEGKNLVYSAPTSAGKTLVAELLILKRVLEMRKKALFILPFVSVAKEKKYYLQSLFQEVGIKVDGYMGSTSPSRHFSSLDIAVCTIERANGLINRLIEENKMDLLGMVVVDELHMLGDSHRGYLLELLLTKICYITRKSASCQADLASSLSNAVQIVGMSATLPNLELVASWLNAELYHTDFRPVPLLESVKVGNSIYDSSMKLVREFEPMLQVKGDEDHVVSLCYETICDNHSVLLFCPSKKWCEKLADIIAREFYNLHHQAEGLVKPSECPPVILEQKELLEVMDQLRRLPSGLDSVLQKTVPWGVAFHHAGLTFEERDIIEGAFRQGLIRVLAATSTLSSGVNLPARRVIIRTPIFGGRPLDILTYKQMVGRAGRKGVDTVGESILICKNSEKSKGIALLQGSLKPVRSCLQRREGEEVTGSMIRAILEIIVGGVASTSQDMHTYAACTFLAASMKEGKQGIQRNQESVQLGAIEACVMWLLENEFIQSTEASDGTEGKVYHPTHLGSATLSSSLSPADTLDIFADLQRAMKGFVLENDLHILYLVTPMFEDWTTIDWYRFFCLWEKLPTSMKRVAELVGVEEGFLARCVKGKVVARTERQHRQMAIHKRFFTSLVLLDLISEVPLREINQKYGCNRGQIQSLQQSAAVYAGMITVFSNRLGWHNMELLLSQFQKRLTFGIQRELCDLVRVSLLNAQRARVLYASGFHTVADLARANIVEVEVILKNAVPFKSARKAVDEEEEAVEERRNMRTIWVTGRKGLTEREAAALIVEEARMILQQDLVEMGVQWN

| Compound | IC50 |
| --- | --- |
| COc1nnc(NC(=O)c2cnc(C)cc2-c2ccc(OC(C)C)c(C#N)c2)s1 [Example 473, 4-[3-cyano-4-(propan-2-yloxy)phenyl]-N-(5-methoxy-1,3,4-thiadiazol-2-yl)-6-methylpyridine-3-carboxamide] | ≤ 200 nM |
| COc1nnc(NC(=O)c2cnc(C)cc2-c2ccc(CN(C)C)nc2)s1 [Example 474, 6-((dimethylamino)methyl)-N-(5-methoxy-1,3,4-thiadiazol-2-yl)-6′-methyl-[3,4′-bipyridine]-3′-carboxamide] | 1000 to 10000 nM |
| COc1nnc(NC(=O)c2cnc(C)cc2-c2ccc(F)c(F)c2C)s1 [Example 475, 4-(3,4-difluoro-2-methylphenyl)-N-(5-methoxy-1,3,4-thiadiazol-2-yl)-6-methylpyridine-3-carboxamide] | 500 to 1000 nM |
| COc1nnc(NC(=O)c2cnc(C)cc2-c2ccc(N3CCCCC3)cc2)s1 [Example 476, N-(5-methoxy-1,3,4-thiadiazol-2-yl)-6-methyl-4-[4-(piperidin-1-yl)phenyl]pyridine-3-carboxamide] | 1000 to 10000 nM |
| COc1nnc(NC(=O)c2cnc(C)cc2-c2cccc(CC#N)c2)s1 [Example 477, 4-[3-(cyanomethyl)phenyl]-N-(5-methoxy-1,3,4-thiadiazol-2-yl)-6-methylpyridine-3-carboxamide] | 1000 to 10000 nM |
| COc1nnc(NC(=O)c2cnc(C)cc2-c2cccc(N3CCCCC3)c2)s1 [Example 478, N-(5-methoxy-1,3,4-thiadiazol-2-yl)-6-methyl-4-[3-(piperidin-1-yl)phenyl]pyridine-3-carboxamide] | 1000 to 10000 nM |
| CNC(=O)c1ccc(-c2cc(C)ncc2C(=O)Nc2nnc(OC)s2)cn1 [Example 479, N3′-(5-methoxy-1,3,4-thiadiazol-2-yl)-N6,6′-dimethyl-[3,4′-bipyridine]-3′,6-dicarboxamide] | 1000 to 10000 nM |
| COc1nnc(NC(=O)c2cnc(C)cc2-c2ccc3ccn(C)c3c2)s1 [Example 480, N-(5-methoxy-1,3,4-thiadiazol-2-yl)-6-methyl-4-(1-methyl-1H-indol-6-yl)pyridine-3-carboxamide] | 1000 to 10000 nM |
| COc1nnc(NC(=O)c2cnc(C)cc2-c2cnccc2C(F)(F)F)s1 [Example 481, N-(5-methoxy-1,3,4-thiadiazol-2-yl)-6′-methyl-4-(trifluoromethyl)-[3,4′-bipyridine]-3′-carboxamide] | 1000 to 10000 nM |
| COc1nnc(NC(=O)c2cnc(C)cc2-c2cccc3c2ccn3C)s1 [Example 482, N-(5-methoxy-1,3,4-thiadiazol-2-yl)-6-methyl-4-(1-methyl-1H-indol-4-yl)pyridine-3-carboxamide] | 1000 to 10000 nM |
| COc1nnc(NC(=O)c2cnc(C)cc2-c2cncc(C(=O)N(C)C)c2)s1 [Example 483, N3′-(5-methoxy-1,3,4-thiadiazol-2-yl)-N5,N5,6′-trimethyl-[3,4′-bipyridine]-3′,5-dicarboxamide] | 1000 to 10000 nM |
| CCCCc1ccc(-c2cc(C)ncc2C(=O)Nc2nnc(OC)s2)cc1 [Example 484, 4-(4-butylphenyl)-N-(5-methoxy-1,3,4-thiadiazol-2-yl)-6-methylpyridine-3-carboxamide] | 1000 to 10000 nM |
| COc1nnc(NC(=O)c2cnc(C)cc2-c2cccc3ncccc23)s1 [Example 485, N-(5-methoxy-1,3,4-thiadiazol-2-yl)-6-methyl-4-(quinolin-5-yl)nicotinamide] | 200 to 500 nM |
| COc1ccc(OC)c(-c2cc(C)ncc2C(=O)Nc2nnc(OC)s2)c1 [Example 486, 4-(2,5-dimethoxyphenyl)-N-(5-methoxy-1,3,4-thiadiazol-2-yl)-6-methylnicotinamide] | 500 to 1000 nM |
| COc1nnc(NC(=O)c2cnc(C)cc2-c2ccc3[nH]ncc3c2)s1 [Example 487, 4-(1H-indazol-5-yl)-N-(5-methoxy-1,3,4-thiadiazol-2-yl)-6-methylnicotin amide] | 500 to 1000 nM |
| COc1nnc(NC(=O)c2cnc(C)cc2-c2cccc(C(N)=O)c2)s1 [Example 488, 4-(3-carbamoylphenyl)-N-(5-methoxy-1,3,4-thiadiazol-2-yl)-6-methylnicotinamide] | 1000 to 10000 nM |
| COc1nnc(NC(=O)c2cnc(C)cc2-c2cccc3nn(C)cc23)s1 [Example 489, N-(5-methoxy-1,3,4-thiadiazol-2-yl)-6-methyl-4-(2-methyl-2H-indazol-4-yl)pyridine-3-carboxamide] | 1000 to 10000 nM |
| COc1nnc(NC(=O)c2cnc(C)cc2-c2ccc3nc[nH]c3c2)s1 [Example 490, 4-(1H-1,3-benzodiazol-6-yl)-N-(5-methoxy-1,3,4-thiadiazol-2-yl)-6-methylpyridine-3-carboxamide] | 1000 to 10000 nM |

Reference: patent US20240287080A1 (IDEAYA Biosciences Inc., priority 2021, published 2024)
